Test results from patent US4818753A, “Synthesis and method of use for 2, 4 diaminoquinazoline” (SRI International, priority 1987, dated 1989).
In brackets after ≈: the same amount, converted by molar mass. Like-named read-outs stand apart in the source and are kept apart here.

Tests used:
[1] = tested on: Candida albicans (14053); assay: Broth dilution assay, F2; type: cell-based
Experimental: (§1) Both broth dilution and agar dilution assays were used to assess the antifungal activity of the compounds of the invention. The cultures were maintained in Sabouraud dextrose broth (SDB) and diluted with […]. 2.5 l of SDB was prepared and distributed into sterile vessels as follows: 49 ml into 1 vessel, 27 ml into 3 vessels, 45 ml into 2 vessels.
(§2) Five mg/ml concentration of each compound was prepared using DMSO as the solvent; warming and sonication were necessary to dissolve each compound completely. The compounds were then diluted in SDB according to the following protocol:
(§3) 5. 1 ug/ml--5 ml (3)+45 ml SDB
(§4) The compound at each concentration in SDB was then dispensed into 6 tubes each containing 4 ml […]. Controls (without any compound) were also prepared to insure that the solvent itself was not fungicidal or fungistatic.
(§5) Cultures were grown in SDB for 24 h at 30° C. C. albicans and C. neoformans were diluted 1:10 in SDB before inoculation. Inoculation volume for yeasts was 2 drops of diluted cells per tube. The fungal cultures were homogenized before inoculation. The same volume was added, but without dilution. All tubes were incubated at room temperature on a rotating wheel. After 16 h of incubation at room temperature, the fungistatic assay was set up on agar plates. […] Yeasts were inoculated onto SDA (the corresponding agar) plates and fungi onto mycosel agar plates. These plates were then incubated at room temperature.

[2] = tested on: Candida albicans (10231); assay: Broth dilution assay, F1; type: cell-based
Experimental: as §1, §2, §3, §4, §5

[3] = tested on: Trichophyton mentagrophytes (11481); assay: Broth dilution assay, F6; type: cell-based
Experimental: as §1, §2, §3, §4, §5

[4] = tested on: Microsporum gypseum (14683); assay: Broth dilution assay, F12; type: cell-based; details: Nannizzia gypsea
Experimental: as §1, §2, §3, §4, §5

[5] = tested on: Penicillium citrinum (9849); assay: Broth dilution assay, F19; type: cell-based; details: for MIC: Table 1, F19, Sabouraud Dextrose Broth pH 5.5, read-out: Minimum Inhibitory Concentration (S, fungistatic)
Experimental: as §1, §2, §3, §4, §5

[6] = tested on: Epidermophyton floccosum (15693); assay: Broth dilution assay, F4; type: cell-based
Experimental: as §1, §2, §3, §4, §5

[7] = tested on: Cryptococcus neoformans (13690); assay: Broth dilution assay, F3; type: cell-based
Experimental: as §1, §2, §3, §4, §5

[8] = tested on: Candida species; details: with SMX, against Candida; Castaldo 1979; cited from earlier work
[9] = tested on: Candida; assay: Growth of Candida cultures with compound and/or SMX (FIG. 1); type: cell-based; details: SMX alone (100 ug)
[10] = pH 5.5, read-out: Minimum Inhibitory Concentration (S, fungistatic)
[11] = pH 5.5, read-out: Minimum Lethal Concentration (C, fungicidal)
[12] = pH 5.5, read-out: S Fungistatic
[13] = Table 1, F6, Sabouraud Dextrose Broth pH 5.5, read-out: Minimum Inhibitory Concentration (S, fungistatic)
[14] = Table 2, F6, Sabouraud Dextrose Broth pH 5.5, read-out: C Fungicidal
[15] = Table 2, F6, Sabouraud Dextrose Broth pH 5.5, read-out: S Fungistatic
[16] = Table 1, Sabouraud Dextrose Broth pH 5.5, read-out: Minimum Inhibitory Concentration (S, fungistatic)
[17] = Table 2, Sabouraud Dextrose Broth pH 5.5, read-out: C Fungicidal
[18] = Table 2, Sabouraud Dextrose Broth pH 5.5, read-out: S Fungistatic
[19] = Table 1, F4, Sabouraud Dextrose Broth pH 5.5, read-out: Minimum Inhibitory Concentration (S, fungistatic)
[20] = Table 2, F4, Sabouraud Dextrose Broth pH 5.5, read-out: C Fungicidal
[21] = Table 2, F4, Sabouraud Dextrose Broth pH 5.5, read-out: S Fungistatic
[22] = Table 2, F1, Sabouraud Dextrose Broth pH 5.5, read-out: C Fungicidal
[23] = Table 2, F1, Sabouraud Dextrose Broth pH 5.5, read-out: S Fungistatic
[24] = Table 2, F3, Sabouraud Dextrose Broth pH 5.5, read-out: C Fungicidal
[25] = Table 2, F3, Sabouraud Dextrose Broth pH 5.5, read-out: S Fungistatic

SMILES | MFC [3, 14] [µg/mL] | MIC [3, 15] [µg/mL] | MFC [4, 17] [µg/mL] | MIC [4, 18] [µg/mL] | MFC [6, 20] [µg/mL] | MIC [6, 21] [µg/mL] | MFC [2, 22] [µg/mL] | MIC [2, 23] [µg/mL] | MFC [7, 24] [µg/mL] | MIC [7, 25] [µg/mL] | also measured
Clc1ccc(COC(Cn2ccnc2)c2ccc(Cl)cc2Cl)c(Cl)c1 (stereo not drawn) [Miconazole, reference compound] | 10 (≈ 24 µM) | ≤ 0.3 | 30 (≈ 72.1 µM) | 1 (≈ 2.4 µM) | ≤ 0.3 | ≤ 0.3 | – | – | – | – | MIC [1, 10]: 30 µg/mL (≈ 72.1 µM); MFC [1, 11]: 30 µg/mL (≈ 72.1 µM); MFC ([2]; pH 5.5, read-out: C Fungicidal): 100 µg/mL (≈ 240 µM); MIC [2, 10]: 10 µg/mL (≈ 24 µM); MFC [2, 11]: 30 µg/mL (≈ 72.1 µM); MIC [2, 12]: 10 µg/mL (≈ 24 µM); MIC [3, 13]: 1 µg/mL (≈ 2.4 µM); MFC [3, 11]: 30 µg/mL (≈ 72.1 µM); MIC [4, 16]: 3 µg/mL (≈ 7.21 µM); MIC [5]: ≤ 0.1 µg/mL; MFC [5, 11]: 30 µg/mL (≈ 72.1 µM); MIC [6, 19]: ≤ 0.1 µg/mL; MFC [6, 11]: 1 µg/mL (≈ 2.4 µM); MFC ([7]; pH 5.5, read-out: C Fungicidal): 10 µg/mL (≈ 24 µM); MIC [7, 10]: ≤ 0.1 µg/mL; MFC [7, 11]: 10 µg/mL (≈ 24 µM); MIC [7, 12]: ≤ 0.3 µg/mL
Nc1nc(N)c2c(ccc3c2ccn3CC2CC2)n1 [N-cyclopropylmethyl-5,6-pyrrolo-2,4-diaminoquinazoline] | – | – | – | – | – | – | – | – | – | – | synergistic activity in presence of sulfamethoxazole (SMX) [8]: synergistic activity
CCCCCCCc1ccc2nc(N)nc(N)c2c1C [R^1 = CH3 R^2 = --CH2 (CH2)5 CH3, 2,4-Diamino-5-methyl-6-n-heptylquinazoline] | 30 (≈ 110 µM) | 30 (≈ 110 µM) | 100 (≈ 367 µM) | 30 (≈ 110 µM) | 30 (≈ 110 µM) | 10 (≈ 36.7 µM) | > 100 | 30 (≈ 110 µM) | 10 (≈ 36.7 µM) | 3 (≈ 11 µM) | –
CCCCCCCCCCc1ccc2nc(N)nc(N)c2c1C [R^1 = CH3 R^2 = --CH2 (CH2)8 CH3, 2,4-Diamino-5-methyl-6-n-decylquinazoline] | 30 (≈ 95.4 µM) | > 100 | > 100 | 100 (≈ 318 µM) | – | – | > 100 | 30 (≈ 95.4 µM) | 30 (≈ 95.4 µM) | 3 (≈ 9.54 µM) | –
Cc1c(CCc2ccccc2)ccc2nc(N)nc(N)c12 [R^1 = CH3 R^2 = --CH2 (CH2)C6 H5, 2,4-Diamino-5-methyl-6-phenethylquinazline] | 30 (≈ 108 µM) | 30 (≈ 108 µM) | > 100 | 100 (≈ 359 µM) | 100 (≈ 359 µM) | 30 (≈ 108 µM) | > 100 | 100 (≈ 359 µM) | 30 (≈ 108 µM) | 10 (≈ 35.9 µM) | –
CCCCCCCCCc1ccc2nc(N)nc(N)c2c1 [R^1 = H R^2 = CH2 (CH2)7 CH3] | > 100 | > 100 | > 100 | 100 (≈ 349 µM) | ≤ 0.3 | 30 (≈ 105 µM) | > 100 | 100 (≈ 349 µM) | > 30 | 3 (≈ 10.5 µM) | –
Cc1cc(NS(=O)(=O)c2ccc(N)cc2)no1 [SMX, sulfamethoxazole, reference compound] | – | – | – | – | – | – | – | – | – | – | cfu/ml over a 36-h period [9]: approximately 10^8 cfu/ml
Cc1cccc(N(C)C(=S)Oc2ccc3ccccc3c2)c1 [Tolnaftate, reference compound] | > 100 | ≤ 0.3 | 30 (≈ 97.6 µM) | ≤ 0.3 | ≤ 0.3 | ≤ 0.3 | > 100 | > 100 | > 100 | > 100 | MIC ([1]; Table 1, F2, Sabouraud Dextrose Broth pH 5.5, read-out: Minimum Inhibitory Concentration (S, fungistatic)): > 100 µg/mL; MFC ([1]; Table 1, F2, Sabouraud Dextrose Broth pH 5.5, read-out: Minimum Lethal Concentration (C, fungicidal)): > 100 µg/mL; MIC ([2]; Table 1, F1, Sabouraud Dextrose Broth pH 5.5, read-out: Minimum Inhibitory Concentration (S, fungistatic)): > 100 µg/mL; MFC ([2]; Table 1, F1, Sabouraud Dextrose Broth pH 5.5, read-out: Minimum Lethal Concentration (C, fungicidal)): > 100 µg/mL; MIC [3, 13]: ≤ 0.1 µg/mL; MFC ([3]; Table 1, F6, Sabouraud Dextrose Broth pH 5.5, read-out: Minimum Lethal Concentration (C, fungicidal)): 3 µg/mL (≈ 9.76 µM); MIC [4, 16]: ≤ 0.1 µg/mL; MFC ([4]; Table 1, Sabouraud Dextrose Broth pH 5.5, read-out: Minimum Lethal Concentration (C, fungicidal)): 10 µg/mL (≈ 32.5 µM); MIC [5]: ≤ 0.3 µg/mL; MFC ([5]; Table 1, F19, Sabouraud Dextrose Broth pH 5.5, read-out: Minimum Lethal Concentration (C, fungicidal)): 30 µg/mL (≈ 97.6 µM); MIC [6, 19]: ≤ 0.1 µg/mL; MFC ([6]; Table 1, F4, Sabouraud Dextrose Broth pH 5.5, read-out: Minimum Lethal Concentration (C, fungicidal)): 10 µg/mL (≈ 32.5 µM); MIC ([7]; Table 1, F3, Sabouraud Dextrose Broth pH 5.5, read-out: Minimum Inhibitory Concentration (S, fungistatic)): > 100 µg/mL; MFC ([7]; Table 1, F3, Sabouraud Dextrose Broth pH 5.5, read-out: Minimum Lethal Concentration (C, fungicidal)): > 100 µg/mL
